The record followed here is ChEMBL document CHEMBL1201862, “PubChem BioAssay data set” (2004).

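Cells were grown in 96-well plates and exposed to each compound for 48 hours at five concentrations; endpoints were interpolated linearly between bracketing concentrations, or set to the highest concentration if not reached. Abbreviation: GI50, concentration required for 50% inhibition of growth.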 Calls of active or inactive are those of the source. Cut-off read from the data, not from the text of the source: active = GI50 up to about 1.1 µM and inactive = higher.

Test systems include SK-MEL-2; UACC-62; SK-MEL-28; BT-549; HL-60; NCI-H23; MDA-MB-231; HCT-116; RPMI-8226; U-251; HCT-15; T47D; HOP-62; M14; CCRF-CEM; OVCAR-5; NCI-H460; SNB-19; PC-3; HCC 2998.
What all share (test): NCI tumour cell line growth inhibition, 48 h

Consider `CCc1cccc(CC)c1NC(=O)C(C#N)C1=C(Cl)C(=O)c2ccccc2C1=O` (stereo not given), for which the GI50 is 18.8 µM (inactive) with SK-MEL-2; 17.5 µM (inactive) in the test with UACC-62; 20.6 µM (inactive) in the test on SK-MEL-28; 12.4 µM (inactive) in the test with BT-549; 1.3 µM (inactive) in the test on HL-60; 13 µM (inactive) with NCI-H23. The GI50 is 5.55 µM (inactive) in the test on MDA-MB-231; 15.9 µM (inactive) in the test on HCT-116; 4.56 µM (inactive) in the test on RPMI-8226; 15.3 µM (inactive) in the test with U-251; 20.6 µM with HCT-15; 3.79 µM (inactive) in the test on T47D. In addition, the GI50 with HOP-62 was 14.5 µM (inactive); in the test on M14, 16.8 µM (inactive); with CCRF-CEM it was 1.33 µM (inactive); with OVCAR-5, 18.8 µM (inactive); with NCI-H460 it was 22.6 µM (inactive); with SNB-19 it was 18.1 µM (inactive). The results for the GI50 with PC-3 and with HCC 2998 were 13 µM (inactive) and 16.9 µM (inactive), respectively.

On to `Cc1cccc2c1c(=O)c1c(O)c3c(cc1n2C)OC(C)(C)C=C3`, for which the GI50 in the test on SK-MEL-2, in the test on UACC-62, with SK-MEL-28, with BT-549, in the test with HL-60 and in the test on NCI-H23 was > 10 µM (inactive) each time. The GI50 in the test with MDA-MB-231 was > 10 µM (inactive); with HCT-116, > 10 µM (inactive); in the test with RPMI-8226, > 10 µM (inactive); in the test with U-251 it was > 10 µM (inactive); in the test with HCT-15 it was greater than 10 µM; in the test with T47D, > 10 µM (inactive). Also, the GI50 in the test with HOP-62, in the test on M14, in the test with CCRF-CEM, in the test with OVCAR-5, in the test on NCI-H460 and with SNB-19 was > 10 µM (inactive) in each case. The GI50 in the test with PC-3 and in the test with HCC 2998 was > 10 µM (inactive) each time.

As for `O=C1c2cccnc2C(=O)c2c1nc1ccccc1c2-c1ccc2c3c(nc4ccccc42)C(=O)c2cccnc2-c13`, the GI50 with SK-MEL-2 was 2.1 µM (inactive); with UACC-62, 1.73 µM (inactive); with SK-MEL-28, 2.55 µM (inactive); in the test with BT-549, 2.46 µM (inactive); in the test with HL-60 it was 1.2 µM (inactive); with NCI-H23, 1.06 µM (active). The GI50 is 2.21 µM (inactive) with MDA-MB-231; 0.459 µM (active) with HCT-116; 1.63 µM (inactive) with RPMI-8226; 1.75 µM (inactive) in the test with U-251; 0.195 µM with HCT-15; 4.58 µM (inactive) with T47D. The GI50 in the test with HOP-62 was 1.17 µM (inactive); in the test on M14, 0.405 µM (active); with CCRF-CEM, 2.07 µM (inactive); with OVCAR-5, 6.43 µM (inactive); with NCI-H460 it was 1.55 µM (inactive); in the test with SNB-19, 1.84 µM (inactive). Besides, the GI50 in the test on PC-3 is 1.44 µM (inactive); in the test on HCC 2998, 1.59 µM (inactive).
